Assays:
Type in all cases: cell-based, human
VCaP cells = test: VCaP cell proliferation; settings: 5 days; for Proliferation (% untreated control): VCaP cells
Procedure: After a treatment period of 5 days in complete medium or CSS+1 nM DHT medium, the proliferative capacity of the cancer cells was measured with using CellTiter 96® AQueous One or CellTiter-Glo® Solution Cell Proliferation kit (Promega), following the manufacturer's instructions. […] Treatment with ISIS oligonucleotides in CSS+DHT medium reduced the proliferative capacity to a greater extent than treatment with MVD-3100. The proliferative capacity of cells cultured in CSS medium without DHT is 12% of untreated control levels.

C4-2 cells = test: C4-2 cell proliferation (complete or CSS+DHT medium); settings: 5 days; for Proliferation (% untreated control): C4-2 cells
Procedure: After a treatment period of 5 days in complete medium or CSS+1 nM DHT medium, the proliferative capacity of the cancer cells was measured with using CellTiter 96® AQueous One Solution or CellTiter-Glo® Cell Proliferation kit (Promega), following the manufacturer's instructions. […] The proliferative capacity of cells cultured in CSS medium without DHT is 17% of untreated control levels.

TMPRSS2 mRNA = test: TMPRSS2 expression in LNCaP cells (complete, CSS+DHT medium); settings: for Percent inhibition of TMPRSS2 expression in LNCaP cells cultured in CSS + DHT medium: CSS + DHT (1 nM) medium, 48 hrs; for Percent inhibition of TMPRSS2 expression in LNCaP cells cultured in complete medium: 48 hours
Procedure: Cells were plated at 1,000 cells per well. […] ISIS 549148 was included as a negative control. […] After an incubation period of 48 hours, RNA levels of AR, PSA and TMPRSS2 were measured.
Cells were plated at 2,000 cells per well and cultured in phenol red-free RPMI supplemented with 5% charcoal stripped serum (Gibco) media for 16 hours. […] ISIS 549148 was included as a negative control. […] After an incubation period of 4 hrs, DHT was added to the medium to a final concentration of 1 nM as indicated. RNAs were collected 48 hrs later and levels of AR, PSA and TMPRSS2 were measured. In the absence of DHT, AR expression in LNCaP cells was 95%, PSA expression was 7% and TMPRSS2 expression was 24% compared to the untreated control.

C4-2B cells = test: C4-2B cell proliferation (complete or CSS+DHT medium; Example 30); settings: 5 days; for Proliferation (% untreated control): C4-2B cells
Procedure: After a treatment period of 5 days in complete medium or CSS+1 nM DHT medium, the proliferative capacity of the cancer cells was measured with using CellTiter 96® AQueous One or CellTiter-Glo® Solution Cell Proliferation kit (Promega), following the manufacturer's instructions.

AR mRNA = test: Time-course AR mRNA expression in C4-2B cells (8, 24, 48 hours); settings: for Percent expression of AR compared to the control group in 8 hours / Percent expression of AR compared to the control group in 24 hours / Percent expression of AR compared to the control group in 48 hours: C4-2B cells
Procedure: C4-2B cells were plated at 1,000 cells per well in complete medium. […] After a treatment period of 8 hours, 24 hours, and 48 hours, AR expression was measured with primer probe set hAR-LTS00943.

PSA mRNA [1] = test: PSA expression in C4-2B cells (Example 30); settings: 48 hrs
Procedure: Cells were plated at 1,000 cells per well. […] ISIS 549148 was included as a negative control. […] After an incubation period of 48 hrs, RNA levels of AR, PSA and TMPRSS2 were measured.
Cells were plated at 2,000 cells per well and cultured in CSS media with 1 nM DHT. […] ISIS 549148 was included as a negative control. […] After an incubation period of 48 hrs, RNA levels of AR, PSA and TMPRSS2 were measured. In the absence of DHT, AR expression in C4-2 cells was 188%, PSA expression was 43% and TMPRSS2 expression was 27% compared to the untreated control.

PSA mRNA [2] = test: PSA expression in 22RV1 cells; settings: RNAiMax, 48 hrs
Procedure: Cells were plated at 1,000 cells per well. […] After an incubation period of 48 hrs, RNA levels of full length AR, the V7 variant, PSA and TMPRSS2 were measured.
After an incubation period of 48 hrs, RNA levels of full length AR, the V7 variant, PSA and TMPRSS2 were measured.
Cells were plated at 2,000 cells per well and cultured in CSS media for 16 hours. […] After 4 hrs, 1 nM DHT was added. […] After an incubation period of 48 hrs, RNA levels of AR, AR V7 variant, PSA and TMPRSS2 were measured.

[3] = complete medium or CSS+1 nM DHT

Sequence: TTGATTTAATGGTTGC [ISIS 560131] (MOE and (S)-cEt gapmer chemistry, further chemistry not given here) [targets intron 1]
- Proliferation (% untreated control) (VCaP cells; CSS + DHT medium, 1.34 nM): 95 % untreated control
- Proliferation (% untreated control) (VCaP cells; CSS + DHT medium, 4.0 nM): 65 % untreated control
- Proliferation (% untreated control) (VCaP cells; CSS + DHT medium, 13.4 nM): 42 % untreated control
- Proliferation (% untreated control) (VCaP cells; CSS + DHT medium, 40 nM): 37 % untreated control
- Proliferation (% untreated control) (VCaP cells; complete medium, 1.34 nM): 98 % untreated control
- Proliferation (% untreated control) (VCaP cells; complete medium, 4.0 nM): 66 % untreated control
- Proliferation (% untreated control) (VCaP cells; complete medium, 13.4 nM): 53 % untreated control
- Proliferation (% untreated control) (VCaP cells; complete medium, 40 nM): 48 % untreated control
- proliferation of VCaP cells (VCaP cells; [3]): reduced proliferation of the cells in a dose dependent compared to the control
- Proliferation (% untreated control) (C4-2 cells; CSS + DHT medium, 0.04 μM): 106 % untreated control
- Proliferation (% untreated control) (C4-2 cells; CSS + DHT medium, 0.2 μM): 94 % untreated control
- Proliferation (% untreated control) (C4-2 cells; CSS + DHT medium, 1 μM): 47 % untreated control
- Proliferation (% untreated control) (C4-2 cells; CSS + DHT medium, 5.0 μM): 31 % untreated control
- Proliferation (% untreated control) (C4-2 cells; complete medium, 0.04 μM): 104 % untreated control
- Proliferation (% untreated control) (C4-2 cells; complete medium, 0.2 μM): 82 % untreated control
- Proliferation (% untreated control) (C4-2 cells; complete medium, 1 μM): 70 % untreated control
- Proliferation (% untreated control) (C4-2 cells; complete medium, 5.0 μM): 51 % untreated control
- proliferation of C4-2 cells (C4-2 cells; [3]): reduced proliferation of the cells in a dose dependent manner compared to the control
- Percent inhibition of TMPRSS2 expression in LNCaP cells cultured in CSS + DHT medium (TMPRSS2 mRNA; 0.04 μM): 6%
- Percent inhibition of TMPRSS2 expression in LNCaP cells cultured in CSS + DHT medium (TMPRSS2 mRNA; 0.2 μM): 11%
- Percent inhibition of TMPRSS2 expression in LNCaP cells cultured in CSS + DHT medium (TMPRSS2 mRNA; 1 μM): 26%
- Percent inhibition of TMPRSS2 expression in LNCaP cells cultured in CSS + DHT medium (TMPRSS2 mRNA; 5.0 μM): 64%
- Percent inhibition of TMPRSS2 expression in LNCaP cells cultured in complete medium (TMPRSS2 mRNA; 0.04 μM): 0%
- Percent inhibition of TMPRSS2 expression in LNCaP cells cultured in complete medium (TMPRSS2 mRNA; 0.2 μM): 25%
- Percent inhibition of TMPRSS2 expression in LNCaP cells cultured in complete medium (TMPRSS2 mRNA; 1 μM): 50%
- Percent inhibition of TMPRSS2 expression in LNCaP cells cultured in complete medium (TMPRSS2 mRNA; 5.0 μM): 51%
- Proliferation (% untreated control) (C4-2B cells; CSS + DHT medium, 0.04 μM): 111 % untreated control
- Proliferation (% untreated control) (C4-2B cells; CSS + DHT medium, 0.2 μM): 75 % untreated control
- Proliferation (% untreated control) (C4-2B cells; CSS + DHT medium, 1 μM): 49 % untreated control
- Proliferation (% untreated control) (C4-2B cells; CSS + DHT medium, 5.0 μM): 40 % untreated control
- Proliferation (% untreated control) (C4-2B cells; complete medium, 0.04 μM): 93 % untreated control
- Proliferation (% untreated control) (C4-2B cells; complete medium, 0.2 μM): 50 % untreated control
- Proliferation (% untreated control) (C4-2B cells; complete medium, 1 μM): 50 % untreated control
- Proliferation (% untreated control) (C4-2B cells; complete medium, 5.0 μM): 41 % untreated control
- proliferation of C4-2B cells (C4-2B cells; [3]): reduced proliferation of the cells in a dose dependent compared to the control
- Percent expression of AR compared to the control group in 8 hours (AR mRNA; 0.04 μM): 110%
- Percent expression of AR compared to the control group in 24 hours (AR mRNA; 0.04 μM): 47%
- Percent expression of AR compared to the control group in 48 hours (AR mRNA; 0.04 μM): 33%
- Percent expression of AR compared to the control group in 8 hours (AR mRNA; 0.2 μM): 85%
- Percent expression of AR compared to the control group in 24 hours (AR mRNA; 0.2 μM): 18%
- Percent expression of AR compared to the control group in 48 hours (AR mRNA; 0.2 μM): 5%
- Percent expression of AR compared to the control group in 8 hours (AR mRNA; 1 μM): 68%
- Percent expression of AR compared to the control group in 24 hours (AR mRNA; 1 μM): 5%
- Percent expression of AR compared to the control group in 48 hours (AR mRNA; 1 μM): 6%
- Percent expression of AR compared to the control group in 8 hours (AR mRNA; 5.0 μM): 45%
- Percent expression of AR compared to the control group in 24 hours (AR mRNA; 5.0 μM): 4%
- Percent expression of AR compared to the control group in 48 hours (AR mRNA; 5.0 μM): 4%
- AR expression (AR mRNA; C4-2B cells, 8, 24 and 48 hours): reduced AR expression in the cells relative to the control set
- Percent inhibition of PSA expression (PSA mRNA [1]; CSS + DHT medium, 0.04 μM): 0%
- Percent inhibition of PSA expression (PSA mRNA [1]; CSS + DHT medium, 0.2 μM): 17%
- Percent inhibition of PSA expression (PSA mRNA [1]; CSS + DHT medium, 1 μM): 50%
- Percent inhibition of PSA expression (PSA mRNA [1]; CSS + DHT medium, 5.0 μM): 61%
- Percent inhibition of PSA expression (PSA mRNA [1]; complete medium, 0.04 μM): 56%
- Percent inhibition of PSA expression (PSA mRNA [1]; complete medium, 0.2 μM): 84%
- Percent inhibition of PSA expression (PSA mRNA [1]; complete medium, 1 μM): 89%
- Percent inhibition of PSA expression (PSA mRNA [1]; complete medium, 5.0 μM): 92%
- Percent inhibition of PSA expression (PSA mRNA [2]; CSS + DHT medium, 1.34 nM): 3%
- Percent inhibition of PSA expression (PSA mRNA [2]; CSS + DHT medium, 4.0 nM): 50%
- Percent inhibition of PSA expression (PSA mRNA [2]; CSS + DHT medium, 13.4 nM): 66%
- Percent inhibition of PSA expression (PSA mRNA [2]; complete medium, 1.34 nM): 10%
- Percent inhibition of PSA expression (PSA mRNA [2]; complete medium, 4.0 nM): 20%
- Percent inhibition of PSA expression (PSA mRNA [2]; complete medium, 13.4 nM): 27%
- Percent inhibition of PSA expression (PSA mRNA [2]; complete medium, 40 nM): 36%

Reference: patent USRE48461E1, “Modulation of androgen receptor expression” (Ionis Pharmaceuticals, Inc., priority 2012, dated 2021)
